The source of these data is patent US20060009445A1, “Tumor-inhibiting anellated azepinone derivatives” (Faustus Forschungs CIE. Translational Cancer Research GmbH, priority 2002, published 2006).

Holding throughout (assay type): cell-based
In assay [1] the test system is MOLT-4. As to the kind of experiment: XTT assay, tumor-inhibiting effect in vitro, MOLT-4. As to conditions: Homo sapiens, incubation period 48 hours. Here is the method:
(§1) The tumor-inhibiting effect was tested in vitro in the XTT assay with an example of various cell lines. The incubation period was 48 hours (IC50 values in μM).

For assay [2], the system named is NCI-H226. Kind of assay: XTT assay, tumor-inhibiting effect in vitro, NCI-H226. Particulars: Homo sapiens, incubation period 48 hours. Here is the method:
as §1
On the technique in general: Formazan colour is commonly taken as a measure of viable cells.

Assay [3] deals with SK-MEL-5. As to the kind of experiment: XTT assay, tumor-inhibiting effect in vitro, SK-MEL-5. As to conditions: Homo sapiens, incubation period 48 hours. On the procedure: as §1
The test system of assay [4] is MCF-7. Kind of assay: XTT assay, tumor-inhibiting effect in vitro, MCF-7. As to conditions: Homo sapiens, MCF7, incubation period 48 hours. Here is the method: as §1
Assay [5] deals with HT-29. As to the kind of experiment: XTT assay, tumor-inhibiting effect in vitro, HT-29. Particulars: Homo sapiens, incubation period 48 hours. Here is the method: as §1
The subject of assay [6] is NCI-H460. Kind of assay: XTT assay, tumor-inhibiting effect in vitro, NCI-H460. Particulars: Homo sapiens, incubation period 48 hours. On the procedure:
as §1

The test system of assay [7] is OVCAR 3. As to the kind of experiment: XTT assay, tumor-inhibiting effect in vitro, OVCAR 3. As to conditions: Homo sapiens, incubation period 48 hours. On the procedure:
as §1

Assay [8] relates to COLO 205. Kind of assay: XTT assay, tumor-inhibiting effect in vitro, COLO 205. Particulars: Homo sapiens, incubation period 48 hours. Here is the method: as §1
The subject of assay [9] is SW-620. Kind of assay: XTT assay, tumor-inhibiting effect in vitro, SW-620. Particulars: Homo sapiens, incubation period 48 hours. Here is the method: as §1
Assay [10] deals with SK-MEL-28. As to the kind of experiment: XTT assay, tumor-inhibiting effect in vitro, SK-MEL-28. Particulars: Homo sapiens, incubation period 48 hours. On the procedure:
as §1

Assay [11] relates to HCT-15. As to the kind of experiment: XTT assay, tumor-inhibiting effect in vitro, HCT-15. Particulars: Homo sapiens, incubation period 48 hours. On the procedure:
as §1

The test system of assay [12] is HCT-116. As to the kind of experiment: XTT assay, tumor-inhibiting effect in vitro, HCT-116. Particulars: Homo sapiens, incubation period 48 hours. On the procedure:
as §1

The subject of assay [13] is CCRF-CEM. As to the kind of experiment: XTT assay, tumor-inhibiting effect in vitro, CCRF-CEM. As to conditions: Homo sapiens, incubation period 48 hours. Here is the method:
as §1

For assay [14], the system named is K-562. Kind of assay: XTT assay, tumor-inhibiting effect in vitro, K-562. As to conditions: Homo sapiens, K562, incubation period 48 hours. Here is the method:
as §1

A word on the IC50: it is the midpoint of a concentration-inhibition curve. A high value points to weaker potency.

As to `Oc1ccccc1/C=N/N=C1\Cc2c([nH]c3ccc(Br)cc23)-c2ccccc2N1` [KP1437], the IC50 was 2.9 µM in assay [1]; 7.19 µM in [2]; 10 µM in assay [3]; 10.4 µM in assay [4]; 6.61 µM in assay [5]; 9.51 µM in assay [6]. For the same molecule, the IC50 in assay [7] is 6.82 µM; in [8] it was 5.25 µM; in [9], 3.83 µM; in assay [10], 7.98 µM; in assay [11], 0.74 µM; in [12], 2.56 µM. For the same molecule, the figures for the IC50 in [13] and in [14] were 1.66 µM and 1.56 µM, respectively.

Regarding `NC(=S)N/N=C1\Cc2c([nH]c3ccc(Br)cc23)-c2ccccc2N1` [KP 1428], the IC50 in assay [1] is 2.63 µM; in assay [2] it was 30.1 µM; in assay [3], 19.4 µM; in assay [4], 20.7 µM; in [5], 9.46 µM; in [6], 14.4 µM. The IC50 was 2.59 µM in [7]; 13.3 µM in assay [8]; 22.8 µM in assay [9]; 18.5 µM in [10]; 24.1 µM in assay [11]; 26.4 µM in assay [12]. Moreover, the IC50 in assay [13] stood at 5.47 µM; in assay [14], 48.4 µM.
